Each compound was assayed against Bek (Homo sapiens, UniProt P21802) (assay: Inhibitory activity against Bek-autophosphorylation using ELISA method in OCUM-2MD3 cells). Conditions: 1 hr with compound, read-out: IC50 (concentration necessary for inhibiting 50% of Bek-phosphorylation).
Chain of Bek (P21802 431-767 limits assumed): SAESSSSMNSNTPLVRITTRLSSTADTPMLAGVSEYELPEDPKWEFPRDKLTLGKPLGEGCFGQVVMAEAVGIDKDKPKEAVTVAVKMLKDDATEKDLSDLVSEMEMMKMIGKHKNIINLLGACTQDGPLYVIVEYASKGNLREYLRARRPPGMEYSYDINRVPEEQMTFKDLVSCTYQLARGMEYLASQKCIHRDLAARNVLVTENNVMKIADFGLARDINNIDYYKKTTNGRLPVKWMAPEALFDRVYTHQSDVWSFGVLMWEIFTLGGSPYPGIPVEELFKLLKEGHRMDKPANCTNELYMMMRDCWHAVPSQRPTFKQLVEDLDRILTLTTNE
Assay type: cell-based
In short: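 Sandwich ELISA (anti-phosphotyrosine capture, anti-Bek detection, peroxidase, 450 nm) measured Bek autophosphorylation in OCUM-2MD3 lysates after 1 hr compound treatment at 37° C in 0.1% serum medium. IC50 derived by scaling between no-drug (100%) and excess positive control at 1000 nM (0%).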
For `COc1cc2c(Oc3ccc(Nc4ccc(C(C)(C)C)cc4)c(F)c3)ccnc2cc1OCCN1CCC(CCO)CC1` [Compound 305, 2-[1-(2-{4-[4-(4-Tert-butyl-phenylamino)-3-fluoro-phenoxy]-6-methoxy-quinolin-7-yloxy}-ethyl)-piperidin-4-yl]-ethanol], the IC50 was 359 nM. `COc1cc2c(Oc3ccc(Nc4ccc(C(C)(C)C)cc4)c(F)c3)ccnc2cc1OCCCN1CCC(CCO)CC1` [Compound 306, 2-[1-(3-{4-[4-(4-Tert-butyl-phenylamino)-3-fluoro-phenoxy]-6-methoxy-quinolin-7-yloxy}-propyl)-piperidin-4-yl]-ethanol] gave an IC50 of 286 nM. `COc1cc2c(Oc3ccc(Nc4ccc(C(C)(C)C)cc4)cc3Cl)ccnc2cc1OCCN1CCC(O)CC1` [Compound 307, 1-(2-{4-[4-(4-Tert-butyl-phenylamino)-2-chloro-phenoxy]-6-methoxy-quinolin-7-yloxy}-ethyl)-piperidin-4-ol] was tested, and the IC50 was 379 nM. Compound `COc1cc2c(Oc3ccc(Nc4ccc(C(C)(C)C)cc4)cc3Cl)ccnc2cc1OCCN1CCC(CO)CC1` [Compound 308, [1-(2-{4-[4-(4-Tert-butyl-phenylamino)-2-chloro-phenoxy]-6-methoxy-quinolin-7-yloxy}-ethyl)-piperidin-4-yl]-methanol] has an IC50 of 204 nM. `COc1cc2c(Oc3ccc(Nc4ccc(C(C)(C)C)cc4)cc3Cl)ccnc2cc1OCCCN1CCC(O)CC1` [Compound 309, 1-(3-{4-[4-(4-Tert-butyl-phenylamino)-2-chloro-phenoxy]-6-methoxy-quinolin-7-yloxy}-propyl)-piperidin-4-ol] showed an IC50 of 211 nM. With `COc1cc2c(Oc3ccc(Nc4ccc(C(C)(C)C)cc4)cc3Cl)ccnc2cc1OCCCN1CCC(CO)CC1` [Compound 310, [1-(3-{4-[4-(4-Tert-butyl-phenylamino)-2-chloro-phenoxy]-6-methoxy-quinolin-7-yloxy}-propyl)-piperidin-4-yl]-methanol] the IC50 was 184 nM. For `COc1cc2c(Oc3ccc(NC(=O)NCCC(C)(C)C)cc3Cl)ccnc2cc1OCCN1CCC(O)CC1` [Compound 311, 1-(3-Chloro-4-{7-[2-(4-hydroxy-piperidin-1-yl)-ethoxy]-6-methoxy-quinolin-4-yloxy}-phenyl)-3-(3,3-dimethyl-butyl)-urea], the IC50 was 23.1 nM. `COc1cc2c(Oc3ccc(NC(=O)NCCC(C)(C)C)cc3Cl)ccnc2cc1OCCN1CCC(CO)CC1` [Compound 312, 1-(3-Chloro-4-{7-[2-(4-hydroxymethyl-piperidin-1-yl)-ethoxy]-6-methoxy-quinolin-4-yloxy}-phenyl)-3-(3,3-dimethyl-butyl)-urea] gave an IC50 of 20.5 nM. In the case of `COc1cc2c(Oc3ccc(Nc4ccc(C(C)(C)C)cc4)cc3Cl)ccnc2cc1OCCN1CCC(CCO)CC1` [Compound 313, 2-[1-(2-{4-[4-(4-Tert-butyl-phenylamino)-2-chloro-phenoxy]-6-methoxy-quinolin-7-yloxy}-ethyl)-piperidin-4-yl]-ethanol], the IC50 is reported as 367 nM. `COc1cc2c(Oc3ccc(Nc4ccc(C(C)(C)C)cc4)cc3Cl)ccnc2cc1OCCCN1CCC(CCO)CC1` [Compound 314, 2-[1-(3-{4-[4-(4-Tert-butyl-phenylamino)-2-chloro-phenoxy]-6-methoxy-quinolin-7-yloxy}-propyl)-piperidin-4-yl]-ethanol] gave an IC50 of 277 nM. With `COc1cc2c(Oc3ccc(NC(=O)NCCC(C)(C)C)cc3Cl)ccnc2cc1OCCN1CCC(CCO)CC1` [Compound 315, 1-[3-Chloro-4-(7-{2-[4-(2-hydroxy-ethyl)-piperidin-1-yl]-ethoxy}-6-methoxy-quinolin-4-yloxy)-phenyl]-3-(3,3-dimethyl-butyl)-urea] the IC50 was 133 nM. `COc1cc2c(Oc3ccc(NC(=O)NCCC(C)(C)C)cc3Cl)ccnc2cc1OCCCN1CCC(CCO)CC1` [Compound 316, 1-[3-Chloro-4-(7-{3-[4-(2-hydroxy-ethyl)-piperidin-1-yl]-propoxy}-6-methoxy-quinolin-4-yloxy)-phenyl]-3-(3,3-dimethyl-butyl)-urea] was tested, and the IC50 was 85.1 nM. Work on `COc1cc2c(Oc3ccc(NC(=O)NCCC(C)(C)C)c(Cl)c3)ccnc2cc1OCCCN1CC(C)OC(C)C1` (stereo not shown) [Compound 317, 1-(2-Chloro-4-{7-[3-(2,6-dimethyl-morpholin-4-yl)-propoxy]-6-methoxy-quinolin-4-yloxy}-phenyl)-3-(3,3-dimethyl-butyl)-urea] yielded an IC50 of 20.4 nM. `COc1cc2c(Oc3ccc(NC(=O)NCCC(C)(C)C)cc3Cl)ccnc2cc1OCCCN1CCOCC1` [Compound 318, 1-{3-Chloro-4-[6-methoxy-7-(3-morpholin-4-yl-propoxy)-quinolin-4-yloxy]-phenyl}-3-(3,3-dimethyl-butyl)-urea] showed an IC50 of 18.7 nM. `COc1cc2c(Oc3ccc(NC(=O)NCCC(C)(C)C)cc3Cl)ccnc2cc1OCCCN1CC(C)OC(C)C1` (stereo not shown) [Compound 319, 1-(3-Chloro-4-{7-[3-(2,6-dimethyl-morpholin-4-yl)-propoxy]-6-methoxy-quinolin-4-yloxy}-phenyl)-3-(3,3-dimethyl-butyl)-urea] was tested, and the IC50 was 22 nM. In the case of `COc1cc2c(Oc3ccc(NC(=O)NCCC(C)(C)C)c(Cl)c3)ccnc2cc1OCCCCN1CCOCC1` [Compound 320, 1-{2-Chloro-4-[6-methoxy-7-(4-morpholin-4-yl-butoxy)-quinolin-4-yloxy]-phenyl}-3-(3,3-dimethyl-butyl)-urea], the IC50 is reported as 21.4 nM. `COc1cc2c(Oc3ccc(NC(=O)NCCC(C)(C)C)c(Cl)c3)ccnc2cc1OCCCCN1CC(C)OC(C)C1` (stereo not shown) [Compound 321, 1-(2-Chloro-4-{7-[4-(2,6-dimethyl-morpholin-4-yl)-butoxy]-6-methoxy-quinolin-4-yloxy}-phenyl)-3-(3,3-dimethyl-butyl)-urea] was tested, and the IC50 was 25.4 nM. `COc1cc2nccc(Oc3ccc(NC(=O)NCCC(C)(C)C)cc3)c2cc1OCCCN1CCC(O)CC1` [Compound 322, 1-(3,3-Dimethyl-butyl)-3-(4-{6-[3-(4-hydroxy-piperidin-1-yl)-propoxy]-7-methoxy-quinolin-4-yloxy}-phenyl)-urea] was tested, and the IC50 was 247 nM. Work on `COc1cc2nccc(Oc3ccc(NC(=O)NCCC(C)(C)C)cc3)c2cc1OCCCN1CCC(CO)CC1` [Compound 323, 1-(3,3-Dimethyl-butyl)-3-(4-{6-[3-(4-hydroxymethyl-piperidin-1-yl)-propoxy]-7-methoxy-quinolin-4-yloxy}-phenyl)-urea] yielded an IC50 of 373 nM. With `COc1cc2nccc(Oc3ccc(NC(=O)NCCC(C)(C)C)cc3)c2cc1OCCCN1CCC(CCO)CC1` [Compound 324, 1-(3,3-Dimethyl-butyl)-3-[4-(6-{3-[4-(2-hydroxy-ethyl)-piperidin-1-yl]-propoxy}-7-methoxy-quinolin-4-yloxy)-phenyl]-urea] the IC50 was 287 nM. `COc1cc2c(Oc3ccc(NC(=O)NCCC(C)(C)C)c(F)c3)ccnc2cc1OCCCN1CC(C)OC(C)C1` (stereo not shown) [Compound 325, 1-(3,3-Dimethyl-butyl)-3-(4-{7-[3-(2,6-dimethyl-morpholin-4-yl)-propoxy]-6-methoxy-quinolin-4-yloxy}-2-fluoro-phenyl)-urea] was tested, and the IC50 was 34.2 nM. With `COc1cc2c(Oc3ccc(NC(=O)NCCC(C)(C)C)cc3F)ccnc2cc1OCCCN1CCOCC1` [Compound 326, 1-(3,3-Dimethyl-butyl)-3-{3-fluoro-4-[6-methoxy-7-(3-morpholin-4-yl-propoxy)-quinolin-4-yloxy]-phenyl}-urea] the IC50 was less than 10 nM. Compound `COc1cc2c(Oc3ccc(NC(=O)NCCC(C)(C)C)cc3F)ccnc2cc1OCCCN1CC(C)OC(C)C1` (stereo not shown) [Compound 327, 1-(3,3-Dimethyl-butyl)-3-(4-{7-[3-(2,6-dimethyl-morpholin-4-yl)-propoxy]-6-methoxy-quinolin-4-yloxy}-3-fluoro-phenyl)-urea] has an IC50 of 20.6 nM. For `COc1cc2c(Oc3ccc(NC(=O)NCCC(C)(C)C)cc3)ccnc2cc1OCCN(C)CCO` [Compound 328, 1-(3,3-Dimethyl-butyl)-3-[4-(7-{2-[(2-hydroxy-ethyl)-methyl-amino]-ethoxy}-6-methoxy-quinolin-4-yloxy)-phenyl]-urea], the IC50 was 37 nM. In the case of `COc1cc2c(Oc3ccc(NC(=O)NCCC(C)(C)C)c(F)c3)ccnc2cc1OCCNCCO` [Compound 329, 1-(3,3-Dimethyl-butyl)-3-(2-fluoro-4-{7-[2-(2-hydroxy-ethylamino)-ethoxy]-6-methoxy-quinolin-4-yloxy}-phenyl)-urea], the IC50 is reported as 20.8 nM. Compound `COc1cc2c(Oc3ccc(NC(=O)NCCC(C)(C)C)c(F)c3)ccnc2cc1OCCN(C)CCO` [Compound 330, 1-(3,3-Dimethyl-butyl)-3-[2-fluoro-4-(7-{2-[(2-hydroxy-ethyl)-methyl-amino]-ethoxy}-6-methoxy-quinolin-4-yloxy)-phenyl]-urea] has an IC50 of 17.8 nM. Compound `COc1cc2c(Oc3ccc(NC(=O)NCCC(C)(C)C)c(Cl)c3)ccnc2cc1OCCNCCO` [Compound 331, 1-(2-Chloro-4-{7-[2-(2-hydroxy-ethylamino)-ethoxy]-6-methoxy-quinolin-4-yloxy}-phenyl)-3-(3,3-dimethyl-butyl)-urea] has an IC50 of 30.1 nM. `COc1cc2c(Oc3ccc(NC(=O)NCCC(C)(C)C)c(F)c3)ccnc2cc1OCCCNCCO` [Compound 332, 1-(3,3-Dimethyl-butyl)-3-(2-fluoro-4-{7-[3-(2-hydroxy-ethylamino)-propoxy]-6-methoxy-quinolin-4-yloxy}-phenyl)-urea] gave an IC50 of 10.8 nM. Work on `COc1cc2c(Oc3ccc(NC(=O)NCCC(C)(C)C)c(F)c3)ccnc2cc1OCCCN(C)CCO` [Compound 333, 1-(3,3-Dimethyl-butyl)-3-[2-fluoro-4-(7-{3-[(2-hydroxy-ethyl)-methyl-amino]-propoxy}-6-methoxy-quinolin-4-yloxy)-phenyl]-urea] yielded an IC50 of 9.4 nM. `COc1cc2c(Oc3ccc(NC(=O)NCCC(C)(C)C)c(Cl)c3)ccnc2cc1OCCCNCCO` [Compound 334, 1-(2-Chloro-4-{7-[3-(2-hydroxy-ethylamino)-propoxy]-6-methoxy-quinolin-4-yloxy}-phenyl)-3-(3,3-dimethyl-butyl)-urea] was tested, and the IC50 was 16.5 nM. Compound `COc1cc2c(Oc3ccc(Nc4ccc(C(C)(C)C)cc4)c(F)c3)ccnc2cc1OCCN(CCO)CCO` [Compound 335, 2-[(2-{4-[4-(4-Tert-butyl-phenylamino)-3-fluoro-phenoxy]-6-methoxy-quinolin-7-yloxy}-ethyl)-(2-hydroxy-ethyl)-amino]-ethanol] has an IC50 of 95.3 nM.
